The source of these data is patent publication US10662221B2, “Cystargolide compounds and uses thereof” (UNIVERSITY OF PRINCE EDWARD ISLAND, priority 2015, dated 2020).

Series [1] concerns the target T1, human 20S proteasome (Homo sapiens, UniProt P28074).
T1 construct: purified human erythrocyte 20S proteasome; purchased Enzo Life Sciences BML-PW8720-0020; host or cells: purified from human erythrocytes (native tissue material)
Put plainly: 20S proteasome inhibition assay (chymotrypsin-like activity, Suc-LLVY-AMC cleavage). It is filed as biochemical. Particulars: purified human erythrocyte 20S proteasome 3 μg/mL, Suc-LLVY-AMC 75 μM, 30° C., 10 min preincubation, triplicate ± SD.
Experimental: Varying concentrations of 1 and 2 were incubated with purified human 20S proteasome. To determine the chymotrypsin-like activity, the fluorogenic substrate Suc-LLVY-AMC was added and fluorescence was recorded to measure the rate of enzyme activity.
1 and 2 were tested for proteasome inhibition using purified human erythrocyte 20S proteasome (Enzo Life Sciences: BML-PW8720-0020). 20S proteasome was diluted to a final concentration of 3 μg/mL in assay buffer (50 mM Tris/HCl, pH 7.5, 25 mM KCl, 10 mM NaCl, 1 mM MgCl2, and 0.03% SDS), and incubated with inhibitors at varying concentrations at 30° C. for 10 minutes. To determine the chymotrypsin-like activity, the reaction was initiated by the addition of the fluorogenic substrate Suc-LLVY-AMC (Enzo Life Sciences, BML-9802-9090) at a final concentration of 75 μM. The rate of cleavage of the substrate was determined by measuring fluorescence using a Spectra Max M2 (Molecular Devices) plate reader at an excitation wavelength of 360 nm and emission of 460 nm. The fluorescence was recorded every 15 seconds for 30 minutes, and the linear regression between 15 and 30 minutes were used to calculate the rate of substrate cleavage (AFU/s). Control wells were included that contained no inhibitor to show the maximum substrate cleavage rate, epoxomicin (0.5 μM) and no enzyme (Blank) to show the minimum response. The IC50 values, the concentration required to reduce the enzyme response by 50 percent, were calculated by Prism 6.0 (GraphPad Software) using a nonlinear regression dose-response, variable slope model based on triplicate measurements±standard deviation.

Series [2] in a line: Stability in mild acidic conditions. Format: physicochemical. Particulars: resulting in polymerization. The text has this:
The fifth degree of unsaturation was attributed to cyclization. Two options were therefore available; a macrolactone cyclization between C-1 and the C-2″ hydroxyl, or a β-lactone between C-4″ and the C-2″ hydroxyl. The presence of IR absorption at 1835 cm^−1 was characteristic of a β-lactone carbonyl stretching band and therefore strongly supports cyclization between C-4″ and the hydroxyl at C-2″. The lack of HMBC correlation between H-2″ and C-1 also supported a β-lactone cyclization. The presence of the β-lactone was further confirmed by the instability of 1 in mild acidic conditions resulting in polymerization. The relative configuration at the C-2″ and C-3″ positions on the β-lactone moiety was determined from an analysis of the ^3JHH values.

Series [3] deals with rabbit 20S proteasome. Particulars: read-out: IC50, inhibition of chymotrypsin-like activity of the rabbit 20S proteasome; cited from earlier work.

Several values for one entry are separate records, joined by “and”; a condition that tells them apart may be missing. Identical values can stand only once.

As for `CCC(C)[C@H](NC(=O)[C@@H](NC(=O)C1OC(=O)C1C(C)C)C(C)C)C(=O)O` (some centres unmarked) [Compound 1, Cystargolide A], in series [1], the 50% inhibitory concentration (IC50) is 360 nM and 350 nM. Further, in series [2], the “stability in mild acidic conditions” value is listed as “instability”. Regarding `CC(C)C1C(=O)OC1C(=O)N[C@H](C(=O)N[C@H](C(=O)O)C(C)C)C(C)C` (some centres unmarked) [Compound 2, Cystargolide B], the midpoint of inhibition in series [1], the IC50, lay at 930 nM. For belactosin A, the IC50 in series [3] is 210 nM.

With belactosin C, in series [3], the IC50 is 210 nM.

For orientation: IC50 means the midpoint of a concentration-inhibition curve.
